Measured values taken from patent publication US12404241B2 (Celgene Corporation, priority 2018, dated 2025).
Where a name gives a salt, the structure may show the parent alone.

Target: T1, AR (Homo sapiens, UniProt P10275)
T1 construct: endogenous in cells; host or cells: VCaP cells
T1 sequence (P10275 1-920): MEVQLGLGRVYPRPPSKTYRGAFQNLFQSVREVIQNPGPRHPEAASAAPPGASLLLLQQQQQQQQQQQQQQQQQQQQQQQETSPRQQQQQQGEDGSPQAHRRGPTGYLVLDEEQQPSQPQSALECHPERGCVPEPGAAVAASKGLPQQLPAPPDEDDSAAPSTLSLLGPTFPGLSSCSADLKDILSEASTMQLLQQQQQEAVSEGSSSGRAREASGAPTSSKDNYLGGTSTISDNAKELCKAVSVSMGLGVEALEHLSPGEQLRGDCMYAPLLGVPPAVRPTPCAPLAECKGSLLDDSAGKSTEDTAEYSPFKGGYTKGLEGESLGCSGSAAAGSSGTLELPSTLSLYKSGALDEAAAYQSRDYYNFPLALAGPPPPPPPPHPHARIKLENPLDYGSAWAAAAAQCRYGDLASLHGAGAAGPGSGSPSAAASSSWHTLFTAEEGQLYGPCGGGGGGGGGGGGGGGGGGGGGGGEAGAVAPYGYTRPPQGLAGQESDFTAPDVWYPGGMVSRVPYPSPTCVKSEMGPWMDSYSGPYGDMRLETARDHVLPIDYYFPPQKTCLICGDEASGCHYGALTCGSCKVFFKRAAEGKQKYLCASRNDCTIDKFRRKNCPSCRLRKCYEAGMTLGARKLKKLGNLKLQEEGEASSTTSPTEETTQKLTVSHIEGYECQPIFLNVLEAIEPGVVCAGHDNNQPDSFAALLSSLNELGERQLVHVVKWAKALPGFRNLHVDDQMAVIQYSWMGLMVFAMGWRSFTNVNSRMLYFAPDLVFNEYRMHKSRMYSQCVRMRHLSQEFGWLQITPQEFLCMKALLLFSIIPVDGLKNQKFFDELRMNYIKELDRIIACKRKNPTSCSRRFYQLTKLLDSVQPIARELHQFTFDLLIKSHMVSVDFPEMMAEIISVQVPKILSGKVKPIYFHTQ
Assay: VCAP AR Degradation Assay
Format: cell-based
Conditions: for Y (AR degradation efficiency, % of DMSO control): class symbols *; for DC50: class symbols A-C, read-out: DC50
Outline: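 Compounds were plated as 10-point 1:3 series reaching 5 μM final, then VCaP cells were seeded onto them and incubated 24 h at 37 °C. Cells were lysed cold, and total AR was measured by sandwich ELISA relative to 0.1% DMSO wells.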

SMILES | Y (AR degradation efficiency, % of DMSO control) | DC50 [nM]
CCc1cc(N2C(=S)N(c3cnc(C#N)c(C(F)(F)F)c3)C(=O)C2(C)C)ccc1OCCN1CCN([C@@H](C)C(=O)Nc2cc(Cl)cc(NC3CCC(=O)NC3=O)c2)CC1 (single isomer, unassigned) [Example 114] | * (0<Y<=25%) | < 100
CC1(C)C(=O)N(c2cnc(C#N)c(C(F)(F)F)c2)C(=S)N1c1ccc(OCCN2CCN(CC(=O)Nc3cc(NC4CCC(=O)NC4=O)ccc3F)CC2)cc1 (stereo not drawn) [Example 86, 2-(4-(2-(4-(3-(6-cyano-5-(trifluoromethyl)pyridin-3-yl)-5,5-dimethyl-4-oxo-2-thioxoimidazolidin-1-yl)phenoxy)ethyl)piperazin-1-yl)-N-(5-(2,6-dioxopiperidin-3-ylamino)-2-fluorophenyl)acetamide] | ** (25%<Y<=35%) | < 100
C[C@@H]1CN(CCOc2ccc(N3C(=S)N(c4cnc(C#N)c(C(F)(F)F)c4)C(=O)C3(C)C)cc2CCF)CCN1CC(=O)Nc1cc(Cl)cc(NC2CCC(=O)NC2=O)c1 (stereo partly drawn) [Example 140, N-(3-chloro-5-(2,6-dioxopiperidin-3-ylamino)phenyl)-2-((R)-4-(2-(4-(3-(6-cyano-5-(trifluoromethyl)pyridin-3-yl)-5,5-dimethyl-4-oxo-2-thioxoimidazolidin-1-yl)-2-(2-fluoroethyl)phenoxy)ethyl)-2-methylpiperazin-1-yl)acetamide] | * (0<Y<=25%) | < 100
CC(C)c1cc(N2C(=S)N(c3ccc(C#N)c(C(F)(F)F)c3)C(=O)C2(C)C)cnc1OCCN1C[C@@H](C)N(CC(=O)Nc2cc(Cl)cc(NC3CCC(=O)NC3=O)c2)C[C@H]1C (stereo partly drawn) [Example 214, N-(3-chloro-5-(2,6-dioxopiperidin-3-ylamino)phenyl)-2-((2R,5R)-4-(2-(5-(3-(4-cyano-3-(trifluoromethyl)phenyl)-5,5-dimethyl-4-oxo-2-thioxoimidazolidin-1-yl)-3-isopropylpyridin-2-yloxy)ethyl)-2,5-dimethylpiperazin-1-yl)acetamide] | ** (25%<Y<=35%) | 100 to 500
CCc1cc(N2C(=S)N(c3ccc(C#N)c(C(F)(F)F)c3)C(=O)C2(C)C)ccc1OCCN1CCN([C@H](C)C(=O)Nc2cccc(NC3CCC(=O)NC3=O)c2)CC1 (stereo partly drawn) [Example 58, (2R)-2-(4-(2-(4-(3-(4-cyano-3-(trifluoromethyl)phenyl)-5,5-dimethyl-4-oxo-2-thioxoimidazolidin-1-yl)-2-ethylphenoxy)ethyl)piperazin-1-yl)-N-(3-(2,6-dioxopiperidin-3-ylamino)phenyl)propanamide] | * (0<Y<=25%) | < 100
CC(C)c1cc(N2C(=S)N(c3ccc(C#N)c(C(F)(F)F)c3)C(=O)C2(C)C)ccc1OCCN1CCN(CC(=O)Nc2cc(Cl)cc(NC3CCC(=O)NC3=O)c2)CC1 (stereo not drawn) [Example 94, N-(3-chloro-5-(2,6-dioxopiperidin-3-ylamino)phenyl)-2-(4-(2-(4-(3-(4-cyano-3-(trifluoromethyl)phenyl)-5,5-dimethyl-4-oxo-2-thioxoimidazolidin-1-yl)-2-isopropylphenoxy)ethyl)piperazin-1-yl)acetamide] | ** (25%<Y<=35%) | 100 to 500
CC1(C)C(=O)N(c2ccc(C#N)c(C(F)(F)F)c2)C(=S)N1c1ccc(OCCN2CCN(CC(=O)Nc3cccc(NC4CCC(=O)NC4=O)c3)CC2)c(C2CC2)c1 (stereo not drawn) [Example 9, hydrochloride] | * (0<Y<=25%) | < 100
C[C@@H]1CN(CCOc2ccc(N3C(=S)N(c4ccc(C#N)c(C(F)(F)F)c4)C(=O)C3(C)C)cc2CC(F)F)CCN1CC(=O)Nc1cccc(NC2CCC(=O)NC2=O)c1 (stereo partly drawn) [Example 153, 2-((R)-4-(2-(4-(3-(4-cyano-3-(trifluoromethyl)phenyl)-5,5-dimethyl-4-oxo-2-thioxoimidazolidin-1-yl)-2-(2,2-difluoroethyl)phenoxy)ethyl)-2-methylpiperazin-1-yl)-N-(3-(2,6-dioxopiperidin-3-ylamino)phenyl)acetamide] | * (0<Y<=25%) | < 100
C[C@@H]1CN(CCOc2ccc(N3C(=S)N(c4ccc(C#N)c(Cl)c4)C(=O)C3(C)C)cc2C2CC2)C[C@H](C)N1CC(=O)Nc1cc(C#N)cc(NC2CCC(=O)NC2=O)c1 (stereo partly drawn) [Example 219, 2-((2S,6R)-4-(2-(4-(3-(3-chloro-4-cyanophenyl)-5,5-dimethyl-4-oxo-2-thioxoimidazolidin-1-yl)-2-cyclopropylphenoxy)ethyl)-2,6-dimethylpiperazin-1-yl)-N-(3-cyano-5-(2,6-dioxopiperidin-3-ylamino)phenyl)acetamide] | ** (25%<Y<=35%) | < 100
CCc1cc(N2C(=S)N(c3ccc(C#N)c(C(F)(F)F)c3)C(=O)C2(C)C)cnc1OCCN1CCN(CC(=O)Nc2cc(Cl)cc(NC3CCC(=O)NC3=O)c2)CC1 (stereo not drawn) [Example 69, N-(3-chloro-5-(2,6-dioxopiperidin-3-ylamino)phenyl)-2-(4-(2-(5-(3-(4-cyano-3-(trifluoromethyl)phenyl)-5,5-dimethyl-4-oxo-2-thioxoimidazolidin-1-yl)-3-ethylpyridin-2-yloxy)ethyl)piperazin-1-yl)acetamide] | * (0<Y<=25%) | < 100
CCC(C)c1cc(N2C(=S)N(c3ccc(C#N)c(C(F)(F)F)c3)C(=O)C2(C)C)ccc1OCCN1CCN(CC(=O)Nc2cccc(NC3CCC(=O)NC3=O)c2)CC1 (stereo not drawn) [Example 29, hydrochloride] | ** (25%<Y<=35%) | 500 to 1000
CCc1cc(N2C(=S)N(c3ccc(C#N)c(C(F)(F)F)c3)C(=O)C2(C)C)cnc1OCCN1C[C@@H](C)N(CC(=O)Nc2cccc(NC3CCC(=O)NC3=O)c2)[C@@H](C)C1 (stereo partly drawn) [Example 216, 2-((2R,6S)-4-(2-(5-(3-(4-cyano-3-(trifluoromethyl)phenyl)-5,5-dimethyl-4-oxo-2-thioxoimidazolidin-1-yl)-3-ethylpyridin-2-yloxy)ethyl)-2,6-dimethylpiperazin-1-yl)-N-(3-(2,6-dioxopiperidin-3-ylamino)phenyl)acetamide] | ** (25%<Y<=35%) | < 100
CC(C)c1cc(N2C(=S)N(c3ccc(C#N)c(C(F)(F)F)c3)C(=O)C2(C)C)ccc1OCCN1C[C@@H](C)N(CC(=O)Nc2cc(NC3CCC(=O)NC3=O)ccc2F)[C@@H](C)C1 (stereo partly drawn) [Example 217, 2-((2S,6R)-4-(2-(4-(3-(4-cyano-3-(trifluoromethyl)phenyl)-5,5-dimethyl-4-oxo-2-thioxoimidazolidin-1-yl)-2-isopropylphenoxy)ethyl)-2,6-dimethylpiperazin-1-yl)-N-(5-(2,6-dioxopiperidin-3-ylamino)-2-fluorophenyl)acetamide] | * (0<Y<=25%) | 500 to 1000
CCc1cc(N2C(=S)N(c3cnc(C#N)c(C(F)(F)F)c3)C(=O)C2(C)C)ccc1O[C@H](C)CN1C[C@@H](C)N(CC(=O)Nc2cccc(NC3CCC(=O)NC3=O)c2)[C@@H](C)C1 (single isomer, unassigned) [Example 239] | * (0<Y<=25%) | < 100
CCc1cc(N2C(=S)N(c3cnc(C#N)c(C(F)(F)F)c3)C(=O)C2(C)C)ccc1OCCN1CCN(CC(=O)Nc2cccc(NC3CCC(=O)NC3=O)c2)CC1 (stereo not drawn) [Example 22, hydrochloride] | * (0<Y<=25%) | < 100
